Where a name gives a salt, the structure may show the parent alone.

This test concerns BRCA-1 silenced HeLa cells (HeLa shBRCA1-GFP). The test is described as follows: Proliferation assay in BRCA-1 silenced HeLa cells. It is filed as cell-based. The settings on record: Homo sapiens; BRCA1 silenced HeLa cells, 168 hours; read-out: CC50 in the BRCA1 silenced HeLa cells. On the procedure:
Proliferation Assay in BRCA-1 Silenced HeLa Cells
Compounds of the present invention were also tested in an anti-proliferative assay in matched pair BRCA1 wt and BRCA1-(shRNA) HeLa cells.
The assay is based on the ability of living cells to convert a redox dye (resazurin) into a fluorescent end product (resofurin). The amount of resofurin produced is directly proportional to the cell number.
HeLa shBRCA1-GFP—These are HeLa cells transduced at an MOI of 100 with a Lentivirus containing a shRNA against BRCA-1 and an expression cassette for GFP. BRCA-1 silencing is more than 80% as assessed by Taqman analysis and the cells stably express GFP.
HeLa THM-GFP—These are HeLa cells transduced at an MOI of 100 with a control vector not expressing any shRNA.
• Seed 300 cell/well in 96 wells viewplate black in 90 ul culture Medium*: • Incubate 4 hours at 37° C., 5% CO2 • Add 10 ul/well of 10× compound (5% DMSO in H2O) • Incubate for 168 hours at 37° C., 5% CO2 • Add 10 ul of Celltiter Blue solution (Promega, G8081) pre-diluted 1:1 in PBS1× • Incubate the mixture for 45′ at 37° C., 5% CO2 • Incubate 15′ at RT in the dark • Read plate at fluorimeter ex: 550 nm; em: 590 nm *Culture Medium: DMEM (GIBCO, 41966-029), 10% FCS (GIBCO, 10106-169), 0.1 mg/ml Penicillin-Streptomycin (GIBCO, 15140-114), 2 mM L-Glutamine (GIBCO, 3042190)
With `Cc1c(Cc2ccc(F)c(C(=O)N3CCN(C4CCCCC4)C(=O)C3)c2)n[nH]c(=O)c1C` [Example 2, 6-{3-[(4-Cyclohexyl-3-oxopiperazin-1-yl)carbonyl]-4-fluorobenzyl}-4,5-dimethyl-3-oxo-2,3-dihydropyridazin-1-ium trifluoroacetate], the CC50 (commonly the concentration that lowers cell viability or growth by half) is < 50 nM.
For `Cc1c(Cc2ccc(F)c(C(=O)N3CC(=O)N(c4cccc(Cl)c4F)[C@H](C)C3)c2)n[nH]c(=O)c1C` [Example 206, 6-(3-{[(3R)-4-(3-Chloro-2-fluorophenyl)-3-methyl-5-oxopiperazin-1-yl]carbonyl}-4-fluorobenzyl)-4,5-dimethylpyridazin-3(2H)-one], the CC50 was < 50 nM.
With `Cc1c(Cc2ccc(F)c(C(=O)N3CC(=O)N(c4ccc(C#N)cc4)[C@H](C)C3)c2)n[nH]c(=O)c1C` [Example 189, 4-((2R)-4-{5-[(4,5-Dimethyl-6-oxo-1,6-dihydropyridazin-3-yl)methyl]-2-fluorobenzoyl}-2-methyl-6-oxopiperazin-1-yl)benzonitrile], the CC50 was < 50 nM.
The result for `Cc1c(Cc2ccc(F)c(C(=O)N3CC(=O)N([C@@H]4CCOC4)[C@H](C)C3)c2)n[nH]c(=O)c1C` [Example 158, 6-[4-fluoro-3-({(3R)-3-methyl-5-oxo-4-[(3R)-tetrahydrofuran-3-yl]piperazin-1-yl}carbonyl)benzyl]-4,5-dimethylpyridazin-3(2H)-one] reads 50 to 500 nM; that for `Cc1c(Cc2ccc(F)c(C(=O)N3CCN([C@@H](C)C(F)(F)F)C(=O)C3)c2)n[nH]c(=O)c1C` [Example 192, 6-[4-Fluoro-3-({3-oxo-4-[(1S)-2,2,2-trifluoro-1-methylethyl]piperazin-1-yl}carbonyl)benzyl]-4,5-dimethylpyridazin-3(2H)-one], 50 to 500 nM; that for `Cc1c(Cc2ccc(F)c(C(=O)N3CCN([C@@H](C)c4ccccc4)C(=O)C3)c2)n[nH]c(=O)c1C` [Example 122, 6-[4-fluoro-3-({3-oxo-4-[(1S)-1-phenylethyl]piperazin-1-yl}carbonyl)benzyl]-4,5-dimethyl-3-oxo-2,3-dihydropyridazin-1-ium trifluoroacetate], 50 to 500 nM.
As for `Cc1c(Cc2ccc(F)c(C(=O)N3CCN(C(c4ccc(F)cc4)C(F)F)C(=O)C3)c2)n[nH]c(=O)c1C` (centres unmarked) [Example 118, 6-[3-({4-[2,2-difluoro-1-(4-fluorophenyl)ethyl]-3-oxopiperazin-1-yl}carbonyl)-4-fluorobenzyl]-4,5-dimethyl-3-oxo-2,3-dihydropyridazin-1-ium trifluoroacetate], the cytotoxic concentration (CC50) is 50 to 500 nM.
The result for `Cc1c(Cc2ccc(F)c(C(=O)N3CC(=O)N(c4ccc(Cl)c(F)c4)[C@H](C)C3)c2)n[nH]c(=O)c1C` [Example 187, 6-(3-{[(3R)-4-(4-Chloro-3-fluorophenyl)-3-methyl-5-oxopiperazin-1-yl]carbonyl}-4-fluorobenzyl)-4,5-dimethylpyridazin-3(2H)-one] reads < 50 nM.
The result for `CC[C@@H](C)N1CCN(C(=O)c2cc(Cc3n[nH]c(=O)c(C)c3C)ccc2F)CC1=O` [Example 168, 6-[4-Fluoro-3-({4-[(1R)-1-methylpropyl]-3-oxopiperazin-1-yl}carbonyl)benzyl]-4,5-dimethylpyridazin-3(2H)-one] reads < 50 nM; that for `Cc1c(Cc2ccc(F)c(C(=O)N3CC(=O)N(c4cccc(Cl)c4)[C@@H](C)C3)c2)n[nH]c(=O)c1C` [Example 177, 6-(3-{[(3S)-4-(3-Chlorophenyl)-3-methyl-5-oxopiperazin-1-yl]carbonyl}-4-fluorobenzyl)-4,5-dimethylpyridazin-3(2H)-one], < 50 nM; that for `Cc1c(Cc2ccc(F)c(C(=O)N3CC(=O)N4[C@@H](CCC[C@@H]4C)C3)c2)n[nH]c(=O)c1C` (single isomer, unassigned) [86 (TT1)], < 50 nM.
The result for `CCCCN1CCN(C(=O)c2cc(Cc3n[nH]c(=O)c(C)c3C)ccc2F)CC1=O` [Example 18, 6-{3-[(4-Butyl-3-oxopiperazin-1-yl)carbonyl]-4-fluorobenzyl}-4,5-dimethylpyridazin-3(2H)-one trifluoroacetate] reads 50 to 500 nM.
Regarding `CCC1CN(C(=O)c2cc(Cc3n[nH]c(=O)c(C)c3C)ccc2F)CC(=O)N1C1CCCCC1` (centres unmarked) [Example 184, 6-{3-[(4-Cyclohexyl-3-ethyl-5-oxopiperazin-1-yl)carbonyl]-4-fluorobenzyl}-4,5-dimethylpyridazin-3(2H)-one], the CC50 lay within 50 to 500 nM.
The result for `C[C@@H]1CCC[C@@H]2CN(C(=O)c3cc(Cc4cc(C(F)(F)F)c(=O)[nH]n4)ccc3F)CC(=O)N21` (single isomer, unassigned) [88 (VV2)] reads 50 to 500 nM; that for `Cc1c(Cc2ccc(F)c(C(=O)N3CCN([C@@H]4C[C@H]5CC[C@@H]4C5)C(=O)C3)c2)n[nH]c(=O)c1C` [Example 101, 6-[3-({4-[(1R,2R,4S)-Bicyclo[2.2.1]hept-2-yl]-3-oxopiperazin-1-yl}carbonyl)-4-fluorobenzyl]-4,5-dimethyl-3-oxo-2,3-dihydropyridazin-1-ium trifluoroacetate], < 50 nM.
The result for `CCc1cc(Cc2ccc(F)c(C(=O)N3CCN(c4ccccc4)C(=O)C3)c2)n[nH]c1=O` [Example 5, 4-Ethyl-6-{4-fluoro-3-[(3-oxo-4-phenylpiperazin-1-yl)carbonyl]benzyl}pyridazin-3(2H)-one trifluoroacetate] reads 50 to 500 nM.
The value for `CCC1CN(C(=O)c2cc(Cc3n[nH]c(=O)c(C)c3C)ccc2F)CC(=O)N1C1CCCC1` (centres unmarked) [Example 186, 6-{3-[(4-Cyclopentyl-3-ethyl-5-oxopiperazin-1-yl)carbonyl]-4-fluorobenzyl}-4,5-dimethylpyridazin-3(2H)-one] was < 5000 nM; that for `Cc1c(Cc2ccc(F)c(C(=O)N3CCN(c4ccc(Cl)cc4)C(=O)C3)c2)n[nH]c(=O)c1C` [Example 13, 6-(3-{[4-(4-Chlorophenyl)-3-oxopiperazin-1-yl]carbonyl}-4-fluorobenzyl)-4,5-dimethyl-3-oxo-2,3-dihydropyridazin-1-ium trifluoroacetate] was < 50 nM.
On to `Cc1c(Cc2ccc(F)c(C(=O)N3CC(=O)N(c4ccc(C#N)cc4F)[C@H](C)C3)c2)n[nH]c(=O)c1C` [Example 201, 4-((2R)-4-{5-[(4,5-Dimethyl-6-oxo-1,6-dihydropyridazin-3-yl)methyl]-2-fluorobenzoyl}-2-methyl-6-oxopiperazin-1-yl)-3-fluorobenzonitrile], for which the CC50 was < 50 nM.
The result for `Cc1c(Cc2ccc(F)c(C(=O)N3CC(=O)N(c4ccc(F)c(F)c4)[C@H](C)C3)c2)n[nH]c(=O)c1C` [Example 203, 6-(3-{[(3R)-4-(3,4-Difluorophenyl)-3-methyl-5-oxopiperazin-1-yl]carbonyl}-4-fluorobenzyl)-4,5-dimethylpyridazin-3(2H)-one] reads < 50 nM; that for `Cc1c(Cc2ccc(F)c(C(=O)N3CCN(C(c4ccccc4)C(F)F)C(=O)C3)c2)n[nH]c(=O)c1C` (centres unmarked) [Example 46, 6-(3-{[4-(2,2-Difluoro-1-phenylethyl)-3-oxopiperazin-1-yl]carbonyl}-4-fluorobenzyl)-4,5-dimethyl-3-oxo-2,3-dihydropyridazin-1-ium trifluoroacetate], < 50 nM; that for `Cc1c(Cc2ccc(F)c(C(=O)N3CCN(C4(C)CCCCC4)C(=O)C3)c2)n[nH]c(=O)c1C` [Example 110, 6-(4-fluoro-3-{[4-(1-methylcyclohexyl)-3-oxopiperazin-1-yl]carbonyl}benzyl)-4,5-dimethyl-3-oxo-2,3-dihydropyridazin-1-ium trifluoroacetate], < 5000 nM.
Take `Cc1c(Cc2ccc(F)c(C(=O)N3CC(=O)N(C4CC(F)(F)C4)[C@@H](C)C3)c2)n[nH]c(=O)c1C` [Example 209, 6-(3-{[(3S)-4-(3,3-Difluorocyclobutyl)-3-methyl-5-oxopiperazin-1-yl]carbonyl}-4-fluorobenzyl)-4,5-dimethylpyridazin-3(2H)-one]: the CC50 is < 50 nM.
Turning to `Cc1cc(C)cc(CN2CCN(C(=O)c3cc(Cc4n[nH]c(=O)c(C)c4C)ccc3F)CC2=O)c1` [Example 19, 6-(3-{[4-(3,5-Dimethylbenzyl)-3-oxopiperazin-1-yl]carbonyl}-4-fluorobenzyl)-4,5-dimethylpyridazin-3(2H)-one trifluoroacetate], the CC50 lay within 50 to 500 nM.
On to `Cc1c(Cc2ccc(F)c(C(=O)N3CCN(C4COC5(CCCCC5)C4)C(=O)C3)c2)n[nH]c(=O)c1C` (centres unmarked) [Example 107, 6-(4-Fluoro-3-{[4-(1-oxaspiro[4.5]dec-3-yl)-3-oxopiperazin-1-yl]carbonyl}benzyl)-4,5-dimethylpyridazin-3(2H)-one trifluoroacetate], for which the half-maximal cytotoxic concentration (CC50) lay within 50 to 500 nM.
The value for `Cc1c(Cc2ccc(F)c(C(=O)N3CC(=O)N4CCCC[C@H]4C3)c2)n[nH]c(=O)c1C` [Example 89, (9aS)-2-{5-[(4,5-Dimethyl-6-oxo-1,6-dihydropyridazin-3-yl)methyl]-2-fluorobenzoyl}octahydro-4H-pyrido[1,2-a]pyrazin-4-one trifluoroacetate] was < 5000 nM.

(Values after patent publication US8268827B2, “Pyridazinone derivatives as PARP inhibitors” (Istituto di Ricerche di Biologia Molecolare P. Angeletti …, priority 2007, dated 2012).)
